From US20250177478A1, “G ALPHA Q/11 INHIBITORS FOR USE AS AN ANALGESIC” (University of Florida Research Foundation, Incorporated, priority 2022, published 2025)
Positions of bridges follow the written chain, without caps; N, C: chain ends. Non-standard residues stand in square brackets, D forms with d. Residues, ends and D or L forms follow the SMILES beside them. Leu(3R-O(AcLeu(3R-OH))) = CC(=O)N[C@H](C(=O)O[C@H](C(C)C)[C@H](N)C(=O)O)[C@H](O)C(C)C; NMeT = CN[C@H](C(=O)O)[C@@H](C)O; dPhLac = O=C(O)[C@H](O)Cc1ccccc1; NMeA = CN[C@@H](C)C(=O)O; NMeDha = C=C(NC)C(=O)O

Experiments:
DRG nociceptors = test: Whole cell patch-clamp recordings of acutely dissociated DRG nociceptors; assay type: cell-based, mouse
Protocol: F. Acutely dissociated dorsal root ganglion (DRG) Preparation. Male or female mice between 1 and 2 months of age were used for acute DRG isolations. […] Dissociated DRG cultures were prepared as previously described (Perner C et al. “Protocol for dissection and culture of murine dorsal root ganglia neurons to study neuropeptide release.” STAR Protoc (2021) 2:100333). Briefly, DRGs were dissected from 1- to 2-month-old mice in Hank's buffered salt solution (HBSS) and digested with Collagenase A and Dispase II for 25 min at 37° C., centrifuged at 200×g for 5 min, and washed with Dulbecco's modified Eagle's medium (DMEM) supplemented with 10% fetal bovine serum (FBS), glutamate, sodium pyruvate, 1% penicillin and 1% streptomycin. DRGs were then triturated in Neurobasal A medium supplemented with 10% FBS, 1% penicillin, 1% streptomycin, 1% GlutaMAX, 2% B27, […] nerve growth factor (NGF) and […] glial cell line-derived neurotrophic factor (GDNF). After plating on laminin-coated coverslips, cells were incubated at 37° C. overnight. Experiments were performed the day after dissection.
G. Whole cell patch-clamp recordings. Nociceptors were identified by physiological classification protocols (Petruska J C et al. “Subclassified acutely dissociated cells of rat DRG: histochemistry and patterns of capsaicin-, proton-, and ATP-activated currents.” J Neurophysiol (2000) 84:2365-2379) summarized in FIG. 10 and further by responsivity to morphine. Each experimental group consisted of 12-18 DRG recordings from three animals, 1-2 of which were female. Hyperpolarization-activated current (Ih) and kinetics of resulting transient currents were determined by stepping membrane potential from −60 to −110 mV for 500 ms in 10 mV increments (FIG. 10A). Outward currents were identified by first preconditioning membrane potential at −100 mV for 500 ms and then stepping from −60 to 40 mV in 20 mV increments for 200 ms (FIG. 10D). Inward current dynamics were determined by preconditioning at −80 mV and then stepping from −60 to 40 mV in 10 mV increments (FIG. 10G). A 6-s, 0- to 2-nA continuous ramp stimulation protocol was used to determine rheobase. Membrane capacitance (Cm), series resistance (Rs) and input resistance (Ri) were tested with a hyperpolarizing 10 mV pulse of 10 ms duration initially and at a 30 s interval throughout the recording period. Cells were recorded only if initial series resistance was ≤20 MΩ and excluded if Rs varied >20% while recording. Offline analysis identified clustering of a population n=30 with uniform morphine responsivity that was selected for further analysis, with basal parameters #SEM: Cm=27.31±4.72 pF, Ri=492±19.29 MQ, Ih=7.10±2.45 pA·pF−1, IA tau=8.39±0.41 ms and action potential (AP) tau=1.22±0.08 ms. K+ internal was used for all recordings, containing: 6 mM NaCl, 4 mM NaOH, 130 mM K-gluconate, 11 mM ethylene glycol-bis(β-aminoethyl ether)tetraacetic acid (EGTA), 1 mM CaCl2, 1 mM MgCl2, 10 mM N-(2-hydroxyethyl)piperazine-N′-(2-ethanesulphonic acid) (HEPES), 2 mM Na2ATP, and 0.2 mM Na2GTP 0.2, adjusted to pH 7.3-7.4 with HCl. External artificial CSF contained: 125 mM NaCl, 3 mM KCl, 1.2 mM KH2PO4, 1.2 mM MgSO4, 25 mM NaHCO3, 2 mM CaCl2), and 10 mM dextrose 10, adjusted to pH 7.3-7.4 with HCl.

C57BL/6 mice = test: Tail immersion test (54° C), spinal analgesia; assay type: in vivo, mouse; settings: for anti-nociceptive response in tail flick (tail immersion) test: subcutaneous
Excerpt: A. Experimental animals. C57BL/6 mice (6-8 weeks old) of both sexes were used. Mice were housed in groups on a 12-h light-dark cycle (6:00 am light cycle; 6:00 pm dark cycle) with food (Teklad Global 16% protein rodent diets; Envigo Inc., WI, USA) and water available ad libitum. Animal groups were compiled to ensure minimization of factors (e.g., weight, sex, and health). Mice were within 20-28 g in weight at start of all studies. All tested groups contained a control group and consisted of male and female mice. Males and females were tested on the same day but at different times so that they were not in the room at the same time. All the experiments were tested during the light cycle between 8:00 am and 3:00 pm to avoid any long-term disruption of sleep cycles. Mice were transferred to the behavioural testing room at least 45 min before the first test to acclimatize. Following behavioural evaluation, animals were killed by CO2 inhalation, followed by cervical dislocation and postmortem decapitation.
B. Drug treatments. […] The dose of YM-254890 for subcutaneous injection was taken from previous published studies. The dose of morphine selected for subcutaneous administration (2.5, 5 and 10 mg kg-1) is commonly used in mouse analgesia. For the combined administration of morphine and YM-254890 on thermal anti-nociception, YM-254890 was administered 10 min before the morphine. The latency of response was measured before injection of drugs (baseline latency response) and at different time intervals (post-treatment latency response) after drugs injection.
C. Intrathecal injections. Intrathecal (i.t.) administration was performed following the method described previously (Hylden J L et al. “Intrathecal morphine in mice: a new technique.” Eur J Pharmacol (1980) 67:313-316; Li D et al. “Direct Intrathecal Injection of Recombinant Adeno-associated Viruses in Adult Mice.” J Vis Exp (2019)) with slight modifications. All intrathecal injections were performed using a 25 μL Hamilton syringe with a 30-gauge needle. The injection volume was 5 μL for each mouse. […] Each solution was injected without injection cannulae. Intrathecal injections were made into the L5-L6 intervertebral space of unanesthetized mice. The flick of the tail was considered indicative of a successful i.t. administration.
(2) Tail Immersion test. Anti-nociception induced by YM-254890 or evaluation of morphine's analgesic effects was determined by tail immersion test. The test was performed as previously described (Wang et al. 2019). Individual mice were transferred to experimentation room and restrained using a well-ventilated 50-ml tube with air holes. In order to minimize handling and to facilitate both the drug delivery and testing, each mouse was comfortably positioned in the plastic restrainer tubes with both fore paws and hind paws extending through holes at the bottom of the restrainer. All animals were habituated to restraint 1 h for 3 days prior to behaviour test. […] Once the animal was immobilized (within 25-30 s), two thirds of the entire tail was dipped in water bath heated to 54° C.

[1] = co-application 100 nM YM + 1 μM morphine

C=C1C(=O)N[C@@H](C)C(=O)N(C)[C@@H](C)C(=O)N[C@@H]([C@H](OC(=O)[C@@H](NC(C)=O)[C@H](O)C(C)C)C(C)C)C(=O)N(C)[C@@H]([C@@H](C)OC)C(=O)O[C@H](C)[C@H](NC(C)=O)C(=O)O[C@H](Cc2ccccc2)C(=O)N1C [YM-254890] (Ac-T[dPhLac][NMeDha]A[NMeA][Leu(3R-O(AcLeu(3R-OH)))][NMeT](Me); ester 1-C)
inhibition of substance P induced excitation of DRG nociceptors (DRG nociceptors; 10 nM substance P followed by 10 nM SP and 100 nM YM): inhibit the effects of substance P | magnitude of decrease in excitability relative to morphine (DRG nociceptors; 100 nM YM versus 1 μM morphine): smaller as compared with morphine | rapidly inactivating A-type potassium currents (IA), voltage-step protocol 2 (DRG nociceptors; YM-254890 or morphine alone): significantly inhibited IA | AP amplitude, voltage-step protocol (DRG nociceptors; bath application alone: 100 nM YM or 1 μM morphine): moderately reduced AP amplitude | excitability of DRG nociceptors (rheobase, 0-2 nA ramp stimulation) (DRG nociceptors; bath application alone: 1 μM morphine or 100 nM YM): significant decrease in the excitability | action potential firing in 0-2 nA ramp protocol (DRG nociceptors; [1]): prevented action potential firing throughout the 2-nA ramp protocol in all recordings | evoked AP responses, voltage-step protocol (DRG nociceptors; [1]): largely prevented evoked AP responses | evoked AP responses, voltage-step protocol (DRG nociceptors; co-application 100 nM YM + 1 μM morphine, listed as YM): greatly inhibited evoked depolarization | rapidly inactivating A-type potassium currents (IA), voltage-step protocol 2 (DRG nociceptors; coadministration of YM-254890 and morphine): nearly eliminated IA | effect on morphine analgesia, tail immersion test (C57BL/6 mice; YM-254890 0.25 mg kg-1 s.c. 10 min before morphine 5 mg/kg s.c.): eliminated this effect | effect on morphine analgesia, tail immersion test (C57BL/6 mice; YM-254890 0.5 mg·kg−1 s.c. 10 min before morphine 5 mg/kg s.c.): significant enhancement of the anti-nociceptive effects of morphine | time to return to baseline nociception, tail immersion test (C57BL/6 mice; YM-254890 alone, intrathecal, 3.0 and 4.5 nmol): about 2 h | magnitude of anti-nociceptive effect upon increasing the dose, tail immersion test (C57BL/6 mice; YM-254890 alone, intrathecal, 3.0 to 4.5 nmol (ceiling effect)): did not change | anti-nociception in tail immersion test, intrathecal (C57BL/6 mice; YM-254890 alone, intrathecal, doses above 1.5 nmol per injection): significant anti-nociceptive properties | anti-nociceptive response in tail flick (tail immersion) test (C57BL/6 mice; YM-254890 alone, highest dose 1 mg·kg−1): significant anti-nociceptive response | anti-nociceptive response in tail flick (tail immersion) test (C57BL/6 mice; YM-254890 alone, lower doses (0.1, 0.3, 0.5 mg/kg)): no significant difference in nociceptive response | effect on systemic morphine analgesia, tail immersion test (C57BL/6 mice; YM-254890 intrathecal 0.5 nmol (lowest subthreshold dose) 10 min before morphine 2.5 mg/kg s.c.): significantly enhance the anti-nociceptive effects of morphine | dose dependence of enhancement of morphine analgesia, tail immersion test (C57BL/6 mice; YM-254890 intrathecal 0.5, 1.5, 3.0, 4.5 nmol with morphine 2.5 mg/kg s.c.): increased dose dependently until maximizing at the cut-off value for the test | maximal extent and duration of morphine analgesia, tail immersion test (C57BL/6 mice; YM-254890 intrathecal, at each of the doses, with morphine 2.5 mg/kg s.c.): both the maximal extent and duration of the analgesic effects of morphine were increased
